Experimental data: patent US6525055B1, “Tricyclic phthalazine derivatives as phosphodiesterase 4 inhibitors” (Zambon Group S.p.A., priority 1998, dated 2003)

Molecular target: PDE 4 enzyme
Test: PDE 4 enzyme inhibition (SPA)
Type: biochemical
Conditions: PDE 4 purified from human PMNs, cAMP 1 μM, 40 minutes at 30° C.
Text: Evaluation of the PDE 4 Enzyme Inhibition a) Purification of Human Polymorphonucleate Leukocytes
The polymorphonucleate leukocytes (PMNs) were isolated from peripheral blood of healthy volunteers according to what described by Boyum A., Scand. J. Immunol., 1976, 5th suppl., 9). Shortly, the isolation of the PMNs was effected by Ficoll-Paque gradient centrifugation followed by sedimentation on dextrane and the erythrocyte contamination was eliminated by hypotonic lysis. […]
b) PDE 4 Enzyme Purification
The human PMNs were re-suspended in TRIS/HCl buffer (10 mM pH 7.8) containing MgCl2 (5 mM), EGTA (4 mM), mercaptoethanol (5 mM), TRlTON-X100 (1%), pepstatin A (1 μM), PMSF (100 μM) and leupeptin (1 μM), and homogenised by Polytron. […]
The enzyme activity was evaluated with an Amersham kit based on the SPA (Scintillation Proximity Assay) technique. […] The radioactivity due to the particles was measured in a […]. The results are expressed as percent activity versus the control present in each experiment. The IC50 values were calculated over 9 equidistant concentrations in logarithmic scale using a 4-parameters logistic function by software.

- IC50: 207 nM
Compound: COc1ccc2c(Cc3c(Cl)cncc3Cl)nn3c(C)nnc3c2c1 [Compound 2, 6-(3,5-Dichloro-pyridin-4-ylmethyl)-9-methoxy-3-methyl-[1,2,4]-triazole-[3,4-a]-phthalazine]
